Data as given in patent US20160297828A1, “SPIROCYCLIC COMPOUNDS CONTAINING SPIRO[INDOLYL-3,1'-PYRROLO[3,4-C]PYRROLE] CORE AND SULPHUR-CONTAINING AMINO ACID RESIDUES” (priority 2013, published 2016).
Where “and” joins values, the source holds several entries; their conditions need not be identical. Equal entries are not always repeated.

Columns and labels:
[1] = tested on: rats with intracerebral hemorrhage; experiment: Neurological deficit (C. P. McGrow stroke-index scale) in rats with intracerebral hemorrhage; type: in vivo; details: n = 15
Experimental: Neuroprotective effect of 3,2′-spiro-pyrrolo-2-oxindole derivative (SI-86 compound) was studied on IUD model of moderate severity modeled under propofol anesthesia (60 mg/kg intraperitoneally (ip)) by autoblood administration into the brain internal capsule (stereotactic coordinates of the projection: H=7.0 mm, L=3.0 mm, A=1.5 mm from bregma) ([…]) (Method for reproduction of intracerebral hemorrhage in rats/O. K. Yarosh, S. V. Kyrychenko, S. P. Halimonchyk [et al.]//Circulation and hemostasis.-2005.-No. 1.-P. 77-81). The chosen model allows to reproduce clinical pattern of […] and is adequate for clinical study of potential neuroprotective agents.
As comparators the following drugs were used: mexydol (“Mexydol” UC Pharmasoft, Russia), 100 mg/kg; citicoline (“Somazina” Ferrer International, SA, Spain), 250 mg/kg; aktovegin (“Aktovegin”, Nycomed, Austria), 16 mg/kg pyracetam (“Pyracetam” Darnitsa, Ukraine), 400 mg/kg. According to the latest clinical guidelines regarding the treatment of patients with CVA approved by the Ministry of Health of Ukraine (Order No. 602 dated 3 Aug. 2012), all these drugs are allowed to be included into schemes for intensive patients therapy with CVA as neuroprotective agents. They were used at recommended doses for preclinical studies (McGrow C. P. Experimental Cerebral Infarction Effects of Pentobarbital in Mongolian Gerbils/C. P. McGrow//Arch. Neurol.-1977.-Vol. 34, No. 6.-P. 334-336). Experimental therapy of acute cerebral ischemia with SI-86 compound and comparator started 1 hour after IUD once a day for 21 days. The SI-86 derivative was investigated in conventionally effective dose of 10 mg/kg […] (iv)-dose that according to the results of our previous study provides maximum antihypoxic activity of SI-86 compound. Reference drugs were injected intraperitoneally (ip). Rats of control pathology group were injected by autoblood and as therapy 0.9% NaCI solution was administered calculated for 2 ml/kg […].
Neurological deficit in animals with acute CVA respectively in acute (4th day) and recovery (21 st day) periods was measured on C. P. McGrow stroke-index scale. The state severity was determined by amount of relevant points: to 3 points-mild, 3 to 7 points-average, above 7 points-severe degree. Pareses, paralyses of limbs, tremors, circus movement, ptoses, lateral positions, ability of rats to be maintained at the core of 15 cm diameter, rotating at the rate of 3 rpm were noted. The animals were tested daily by displaying the amount of points:
one-sided semi-ptosis—0.5 points; one-sided ptosis—1 point; tremor—0.5 points; circus movements—0.5 points; pareses of limbs (for each limb)—1 point; paralyses of limbs (for each limb)—2 points; lateral position—3 points; disability to maintain on rotating rod during 4 minutes—3 points.

11β-corticosterone = 11β-corticosterone level in venous blood of rats with bilateral carotid occlusion (ELISA); type: in vivo, Wistar rats; details: for dynamics in percents in relation to control pathology group / dynamics in percents in relation to the group of pseudo-operated animals / 11β-corticosterone level in venous blood: BCO
Experimental: The neuroprotective effect of 3,2′-spiro-pyrrolo-2-oxindole derivative (SI-86 compound) was studied in Wistar rats on a model of cerebrovascular accident (CVA) of ischemic type in archencephalic pool forming bilateral carotid occlusion (BCO) by carotid artery ligation. The ligations for common carotid arteries was imposed under propofol anesthesia at a dose of 60 mg/kg intraperitoneally (ip), using surgical access to the front of the neck cutting through its white line. The chosen model allows to reproduce the clinical pattern of ischemic stroke and is adequate for clinical study of potential neuroprotective substances (Drug discovery and Evaluation: pharmacological assays/H. Gerhard Vogel (ed.).-2nd ed. 1453p.).
The derivative of 3,2′-spiro-pyrrolo-2-oxindole was investigated in conventionally effective dose of 10 mg/kg […] (iv)—dose which is provided maximum antihypoxic activity of SI-86 compound by the results of our previous study. The reference drugs were injected intraperitoneally (ip). BCO was applied to the rats of control pathology and 0.9% NaCI solution was administered as therapy calculated for 2 ml/kg ip.
Pseudo-operated rats were exposed to all interventions (anesthesia, skin incision, dissection of vessels) except arteries ligation that leveled traumatic impact of experimental conditions.
To determine a corticosterone level (species-specific cortisol analogue in rats, which is also a substrate for 11β-HSD1) in the corresponding period (4 th and 21 st CVA day) in rat by sagittal sinus puncture, blood was sampled (0.2-0.4 ml). The cortisol level was measured by ELISA using a CORTICOSTERONEE KIT set (Germany) on the instrument of the company “Hipson” (Czech Republic).

rats = experiment: Acute normobaric hypoxic hypoxia with hypercapnia (ANHHH), life duration; type: in vivo; details: preventive administration; SI-86 and SI-108 10 mg/kg iv, mexydol 100 mg/kg ip
Experimental: The study of antihypoxic activity of 10 original derivatives of 3,2′-spiro-pyrrolo-2-oxindole was conducted on models of acute normobaric hypoxic hypoxia with hypercapnia (ANHHH) and acute asphyxia. ANHHH was modeled by means of rat arrangement into isolated pressure compartments (0.001 m^3). The observation conducted until the death of the animals. The antihypoxic activity was assessed by life duration (in minutes) in relation to the control taken as 100%, by the formula AA=tt/tk×100%, wherein AA—antihypoxic activity (%), tt—life duration of test animals, tc—life duration of control animals.
(§1) The preliminary screening of test substances was performed on ANHHH model. All derivatives were administered in the same dose of 10 mg/kg […] (iv) 1 hour prior to pathological state modeling. […] The effectiveness of a leader compound was evaluated at doses 5; 10 and 15 mg/kg iv. Mexydol was chosen as a reference drug having antihypoxic action in combination with antioxidant and membrane protective activity, which is successfully used in patients with CVA and IM. Mexydol was administered intraperitoneally (ip) at a dose of 100 mg/kg according to similar scheme.

[2] = tested on: rat heart bioelectrical activity; experiment: Acute asphyxia, duration of heart bioelectrical activity; type: in vivo, rats
Experimental: Acute asphyxia was modeled in rats anesthetized with propofol (60 mg/kg) intraperitoneally (ip) by complete clamping the trachea at electrocardiogram (EGC) registration. The antihypoxic effect was evaluated by duration of heart bioelectric activity (HBA). This model allows to estimate the heart sensitivity to hypoxia. An isoelectric ECG line for 1 minute considered as HBA termination, the pint of HBA termination corresponded to the last QRS complex on the ECG. The calculation of […] activity was performed by the above formula considering a point of last QRS complex registration as a lifetime.
as §1

CSCC[C@@H]1N[C@@]2(C(=O)Nc3ccccc32)[C@@H]2C(=O)N(c3ccc(C)cc3)C(=O)[C@H]12 [SI-86, 5′-(4-Methylphenyl)-3′-[2-(methylthio)ethyl]-3a′,6a′-dihydro-2′H-spiro[indole-3,1′-pyrrolo[3,4-c]pyrrol]-2,4′,6′(1H,3′H,5′H)-trione]
neurological deficit, average point under C. P. McGrow scale ([1]; day 4, SI-86 10 mg/kg iv, mexydol 100, citocoline 250, actovegin 16, pyracetam 400 mg/kg ip): 4.1 points and 4.10 ± 0.32°*^#•$ points
neurological deficit, average point under C. P. McGrow scale ([1]; day 21, same doses): 3.1 points and 3.10 ± 0.33°*^#&$ points
dynamics in percents in relation to control pathology group (11β-corticosterone; day 4): [−60.2%]
dynamics in percents in relation to the group of pseudo-operated animals (11β-corticosterone; day 4): (+54.8%)
11β-corticosterone level in venous blood (11β-corticosterone; day 4, SI-86 10 mg/kg iv, citocoline 250 mg/kg ip): 186.12 ± 1.43°*^# ng/ml
dynamics in percents in relation to control pathology group (11β-corticosterone; day 21): [−57.1%]
dynamics in percents in relation to the group of pseudo-operated animals (11β-corticosterone; day 21): (+55.2%)
11β-corticosterone level in venous blood (11β-corticosterone; day 21, same doses): 144.67 ± 3.43°*^#• ng/ml
ability to reduce corticosterone content, better than citocoline (11β-corticosterone; CVA acute period): 1.46 times
corticosterone concentration in sagittal sinus blood decreased in relation to the control pathology group (11β-corticosterone; after 96 hours): 60.2%
corticosterone concentration in sagittal sinus blood decreased in relation to the control pathology group (11β-corticosterone; after 21 days): 57.1%
ability to reduce corticosterone content, better than citocoline (11β-corticosterone; recovery period): 1.62 times
increase of life duration in rats in relation to control (rats): 33.7%
Antihypoxic activity ([2]; 5 mg/kg iv): +12.1%
Duration of heart bioelectrical activity ([2]; 5 mg/kg iv): 13.0 ± 1.5 min
Antihypoxic activity ([2]; 10 mg/kg iv): +5.8%
Duration of heart bioelectrical activity ([2]; 10 mg/kg iv): 12.3 ± 1.4 min
Antihypoxic activity ([2]; 15 mg/kg iv): −2.8%
Duration of heart bioelectrical activity ([2]; 15 mg/kg iv): 11.3 ± 1.0 min
